Results reported in ChEMBL document CHEMBL1149340, “Optimization and SAR for dual ErbB-1/ErbB-2 tyrosine kinase inhibition in the 6-furanylquinazoline series” (Bioorg Med Chem Lett, 2006).

What was measured:
[1] = test system: BT-474; assay: Inhibition of BT474 cell growth after 72 hrs; format: functional, cell-based; conditions: Homo sapiens, BT-474, 72 h
[2] = test system: NCI-N87; assay: Inhibition of N87 cell growth after 72 hrs; format: functional, cell-based; conditions: Homo sapiens, NCI-N87, 72 h
[3] = target: Receptor tyrosine-protein kinase erbB-2 (Homo sapiens, UniProt P04626)
Sequence of Receptor tyrosine-protein kinase erbB-2 (P04626 whole entry): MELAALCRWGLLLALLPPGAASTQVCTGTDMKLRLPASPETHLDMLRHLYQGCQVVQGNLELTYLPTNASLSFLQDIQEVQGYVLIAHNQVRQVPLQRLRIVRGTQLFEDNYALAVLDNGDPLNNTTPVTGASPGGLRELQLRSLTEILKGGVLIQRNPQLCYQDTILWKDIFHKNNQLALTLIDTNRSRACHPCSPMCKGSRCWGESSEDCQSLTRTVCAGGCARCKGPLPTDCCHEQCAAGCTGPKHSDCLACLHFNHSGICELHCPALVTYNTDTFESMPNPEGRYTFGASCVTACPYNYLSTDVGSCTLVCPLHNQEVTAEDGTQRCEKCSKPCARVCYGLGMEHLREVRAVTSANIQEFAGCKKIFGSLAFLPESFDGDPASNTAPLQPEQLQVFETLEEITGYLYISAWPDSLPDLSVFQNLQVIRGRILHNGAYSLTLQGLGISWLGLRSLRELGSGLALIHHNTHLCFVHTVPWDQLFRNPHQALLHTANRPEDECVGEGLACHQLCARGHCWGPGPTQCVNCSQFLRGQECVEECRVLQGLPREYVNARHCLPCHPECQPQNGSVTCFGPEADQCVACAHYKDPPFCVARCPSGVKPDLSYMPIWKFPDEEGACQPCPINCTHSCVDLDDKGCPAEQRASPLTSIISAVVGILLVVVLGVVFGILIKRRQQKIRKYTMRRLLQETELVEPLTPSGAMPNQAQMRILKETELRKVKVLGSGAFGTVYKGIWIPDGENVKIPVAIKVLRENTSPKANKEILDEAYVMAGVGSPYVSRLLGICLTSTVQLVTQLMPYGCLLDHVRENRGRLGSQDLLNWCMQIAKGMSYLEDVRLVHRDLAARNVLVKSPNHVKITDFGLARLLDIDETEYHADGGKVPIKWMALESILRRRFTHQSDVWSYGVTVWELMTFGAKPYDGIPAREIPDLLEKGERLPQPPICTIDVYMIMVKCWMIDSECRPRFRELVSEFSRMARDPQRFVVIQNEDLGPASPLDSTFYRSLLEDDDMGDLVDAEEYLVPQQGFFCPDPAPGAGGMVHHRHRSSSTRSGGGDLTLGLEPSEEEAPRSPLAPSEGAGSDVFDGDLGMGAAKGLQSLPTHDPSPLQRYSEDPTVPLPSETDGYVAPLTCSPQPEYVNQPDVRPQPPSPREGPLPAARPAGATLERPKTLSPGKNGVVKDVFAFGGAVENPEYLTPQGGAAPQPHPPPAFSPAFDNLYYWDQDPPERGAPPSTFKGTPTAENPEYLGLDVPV

[4] = target: Epidermal growth factor receptor (Homo sapiens, UniProt P00533)
Sequence of Epidermal growth factor receptor (P00533 whole entry): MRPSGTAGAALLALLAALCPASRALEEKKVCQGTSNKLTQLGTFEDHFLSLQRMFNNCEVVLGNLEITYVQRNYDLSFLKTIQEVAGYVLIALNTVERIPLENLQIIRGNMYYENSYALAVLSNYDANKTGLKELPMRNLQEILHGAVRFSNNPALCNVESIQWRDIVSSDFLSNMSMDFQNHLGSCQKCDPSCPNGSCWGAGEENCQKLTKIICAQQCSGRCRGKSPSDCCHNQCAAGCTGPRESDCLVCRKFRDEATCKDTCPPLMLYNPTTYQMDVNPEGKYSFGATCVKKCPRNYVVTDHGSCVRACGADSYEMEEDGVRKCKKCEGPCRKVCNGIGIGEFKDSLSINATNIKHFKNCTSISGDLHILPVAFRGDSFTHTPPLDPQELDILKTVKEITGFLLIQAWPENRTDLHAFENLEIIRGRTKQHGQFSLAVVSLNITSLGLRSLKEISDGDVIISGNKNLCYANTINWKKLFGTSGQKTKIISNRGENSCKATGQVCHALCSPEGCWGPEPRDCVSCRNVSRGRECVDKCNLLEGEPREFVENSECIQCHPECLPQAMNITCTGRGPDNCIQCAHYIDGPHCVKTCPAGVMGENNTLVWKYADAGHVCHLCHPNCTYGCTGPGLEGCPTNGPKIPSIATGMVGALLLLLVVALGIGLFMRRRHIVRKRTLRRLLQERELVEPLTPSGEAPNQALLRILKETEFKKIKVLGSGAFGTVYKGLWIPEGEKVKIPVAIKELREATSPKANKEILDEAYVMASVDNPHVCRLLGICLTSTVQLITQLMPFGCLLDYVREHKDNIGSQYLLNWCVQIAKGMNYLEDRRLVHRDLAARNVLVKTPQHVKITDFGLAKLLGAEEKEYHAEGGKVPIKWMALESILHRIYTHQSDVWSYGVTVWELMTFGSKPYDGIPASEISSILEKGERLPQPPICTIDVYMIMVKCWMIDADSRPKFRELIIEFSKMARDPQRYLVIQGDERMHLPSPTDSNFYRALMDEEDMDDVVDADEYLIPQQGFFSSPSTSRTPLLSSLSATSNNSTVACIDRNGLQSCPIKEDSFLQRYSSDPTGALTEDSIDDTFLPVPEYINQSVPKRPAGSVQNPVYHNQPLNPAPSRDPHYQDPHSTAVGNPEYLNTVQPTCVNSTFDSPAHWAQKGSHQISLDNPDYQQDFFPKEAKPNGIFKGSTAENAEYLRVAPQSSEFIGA

[5] = test system: HN5; assay: cells; conditions: Homo sapiens, HN5, 72 h
Description: Inhibition of HN5 cell growth after 72 hrs

[6] = test system: HFF; assay: Inhibition of HFF cell growth; conditions: Homo sapiens

SMILES | IC50 [1] | IC50 [2] | IC50 [3] | IC50 [4] | IC50 [5] | IC50 [6]
CS(=O)(=O)CCNCc1ccc(-c2ccc3ncnc(Nc4ccc(OCc5cccc(F)c5)cc4)c3c2)o1 | 770 nM | 860 nM | 31 nM | 24 nM | 840 nM | 
CS(=O)(=O)CCNCc1ccc(-c2ccc3ncnc(Nc4ccc(OCc5cccc(Br)c5)cc4)c3c2)o1 | 2130 nM | 3460 nM | 100 nM | 43 nM | 2560 nM | 
CS(=O)(=O)CCNCc1ccc(-c2ccc3ncnc(Nc4ccc(OCc5ccccc5)c(C(F)(F)F)c4)c3c2)o1 | 10100 nM | 6500 nM | 200 nM | 160 nM | 5900 nM | 
[O-][S+]1CCN(Cc2ccc(-c3ccc4ncnc(Nc5ccc(OCc6ccccc6)c(F)c5)c4c3)o2)CC1 | 1200 nM | 1130 nM | 35 nM | 16 nM | 1000 nM | 
CCCN(CCS(C)(=O)=O)Cc1ccc(-c2ccc3ncnc(Nc4ccc(OCc5cccc(F)c5)c(Cl)c4)c3c2)o1 | 250 nM |  | 20 nM | 85 nM |  | 
CC(C)S(=O)(=O)CCNCc1ccc(-c2ccc3ncnc(Nc4ccc(OCc5cccc(F)c5)c(Cl)c4)c3c2)o1 | 200 nM | 130 nM | 24 nM |  |  | > 30000 nM
CS(=O)(=O)CCNCc1ccc(-c2ccc3ncnc(Nc4ccc(OCc5cccc(F)c5)c(Cl)c4)c3c2)o1 [LAPATINIB] | 80 nM | 80 nM |  |  |  | 9900 nM
O=S(=O)(CCOCc1ccc(-c2ccc3ncnc(Nc4ccc(OCc5cccc(F)c5)c(Cl)c4)c3c2)o1)c1ccccc1 [GW615311X] |  |  | 28 nM | 25 nM |  | 
CS(=O)(=O)CCNCc1ccc(-c2ccc3ncnc(Nc4ccc(OCc5cccc(C(F)(F)F)c5)cc4)c3c2)o1 | 4200 nM | 5200 nM | 360 nM | 91 nM | 6900 nM | 
CS(=O)(=O)CCNCc1ccc(-c2ccc3ncnc(Nc4ccc(OCc5ccccc5)c(Cl)c4)c3c2)o1 | 250 nM | 280 nM | 22 nM | 18 nM | 250 nM | 
[O-][S+]1CCN(Cc2ccc(-c3ccc4ncnc(Nc5ccc(OCc6cccc(F)c6)c(C(F)(F)F)c5)c4c3)o2)CC1 | 3000 nM | 2090 nM | 141 nM | 89 nM | 1110 nM | 
CS(=O)(=O)CCOCc1ccc(-c2ccc3ncnc(Nc4ccc(OCc5cccc(F)c5)c(Cl)c4)c3c2)o1 | 170 nM |  | 17 nM | 26 nM |  | > 30000 nM
CS(=O)(=O)CCN(Cc1ccccc1)Cc1ccc(-c2ccc3ncnc(Nc4ccc(OCc5cccc(F)c5)c(Cl)c4)c3c2)o1 | 610 nM |  | 141 nM |  |  | 
[O-][S+]1CCN(Cc2ccc(-c3ccc4ncnc(Nc5ccc(OCc6ccccc6)c(Cl)c5)c4c3)o2)CC1 | 420 nM | 460 nM | 23 nM | 12 nM | 320 nM | 
CS(=O)(=O)CCNCc1ccc(-c2ccc3ncnc(Nc4ccc(OCc5ccccc5)c(Br)c4)c3c2)o1 | 270 nM | 370 nM |  |  |  | 
O=S(=O)(CCCCNCc1ccc(-c2ccc3ncnc(Nc4ccc(OCc5ccccc5)c(Cl)c4)c3c2)o1)c1ccccc1 |  |  | 38 nM | 50 nM |  | 
[O-][S+]1CCN(Cc2ccc(-c3ccc4ncnc(Nc5ccc(OCc6cccc(F)c6)c(Cl)c5)c4c3)o2)CC1 | 100 nM | 80 nM | 18 nM | 28 nM | 60 nM | 8180 nM
CS(=O)(=O)CCNCc1ccc(-c2ccc3ncnc(Nc4ccc(OCc5ccccc5)cc4)c3c2)o1 | 280 nM | 870 nM | 26 nM | 27 nM | 650 nM | 
CS(=O)(=O)CCNCc1ccc(-c2ccc3ncnc(Nc4ccc(OCc5cccc(F)c5)c(C(F)(F)F)c4)c3c2)o1 [GW576484X] | 4490 nM | 2890 nM | 220 nM | 80 nM | 1940 nM | 
CCCS(=O)(=O)CCNCc1ccc(-c2ccc3ncnc(Nc4ccc(OCc5cccc(F)c5)c(Cl)c4)c3c2)o1 | 3140 nM | 8660 nM | 26 nM | 21 nM | 1600 nM | 
COc1cc(Nc2ncnc3ccc(-c4ccc(CNCCS(C)(=O)=O)o4)cc23)ccc1OCc1cccc(F)c1 | 2070 nM | 1900 nM |  |  |  | 
O=S(=O)(CCNCc1ccc(-c2ccc3ncnc(Nc4ccc(OCc5cccc(F)c5)c(Cl)c4)c3c2)o1)c1ccccc1 | 1040 nM | 870 nM | 30 nM | 19 nM | 1070 nM | 
CS(=O)(=O)CCN(CC#N)Cc1ccc(-c2ccc3ncnc(Nc4ccc(OCc5cccc(F)c5)c(Cl)c4)c3c2)o1 [GW616030X] | 67 nM |  | 22 nM | 27 nM |  | > 30000 nM
